Data taken from US12343326B2, “Psychoactive medicines and their use for treating psychiatric and neurological conditions and disorders” (Transcend Therapeutics, Inc., priority 2021, dated 2025).

Tests used:
Test in all cases: β-arrestin based GPCR screen (PathHunter / GPCRmax), antagonist mode
[1] = biological target: 168 GPCRs (Homo sapiens, UniProt O00574)
[2] = biological target: 168 GPCRs (Homo sapiens, UniProt O95977)
[3] = biological target: T1, 168 GPCRs (Homo sapiens, UniProt P0DMS8); settings: ADORA3, Antagonist
T1 sequence (P0DMS8 1-318): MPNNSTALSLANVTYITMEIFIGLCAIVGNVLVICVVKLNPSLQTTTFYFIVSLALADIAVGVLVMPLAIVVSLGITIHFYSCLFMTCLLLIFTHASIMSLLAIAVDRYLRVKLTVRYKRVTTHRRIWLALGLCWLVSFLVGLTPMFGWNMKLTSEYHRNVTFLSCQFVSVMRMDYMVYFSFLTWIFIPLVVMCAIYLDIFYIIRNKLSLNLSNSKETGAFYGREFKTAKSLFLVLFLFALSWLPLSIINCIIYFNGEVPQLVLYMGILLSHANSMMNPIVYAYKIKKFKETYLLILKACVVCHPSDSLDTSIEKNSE

[4] = biological target: 168 GPCRs (Homo sapiens, UniProt P11229); settings: CHRM1, Antagonist
Chain of 168 GPCRs (Homo sapiens, UniProt P11229) (P11229 whole entry): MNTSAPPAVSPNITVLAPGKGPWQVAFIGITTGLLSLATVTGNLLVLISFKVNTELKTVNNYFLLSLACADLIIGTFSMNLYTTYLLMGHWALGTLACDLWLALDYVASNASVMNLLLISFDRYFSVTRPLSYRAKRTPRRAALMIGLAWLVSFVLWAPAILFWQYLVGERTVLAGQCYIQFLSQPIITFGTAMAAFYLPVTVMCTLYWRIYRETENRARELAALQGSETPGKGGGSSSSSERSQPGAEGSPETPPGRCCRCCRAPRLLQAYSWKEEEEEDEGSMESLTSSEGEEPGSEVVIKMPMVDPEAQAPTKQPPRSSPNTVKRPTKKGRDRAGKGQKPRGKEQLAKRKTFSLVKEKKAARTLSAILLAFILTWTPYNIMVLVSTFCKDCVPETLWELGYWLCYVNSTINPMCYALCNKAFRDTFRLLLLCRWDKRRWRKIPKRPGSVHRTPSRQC

[5] = biological target: 168 GPCRs (Homo sapiens, UniProt P21453)
Chain of 168 GPCRs (Homo sapiens, UniProt P21453) (P21453 whole entry): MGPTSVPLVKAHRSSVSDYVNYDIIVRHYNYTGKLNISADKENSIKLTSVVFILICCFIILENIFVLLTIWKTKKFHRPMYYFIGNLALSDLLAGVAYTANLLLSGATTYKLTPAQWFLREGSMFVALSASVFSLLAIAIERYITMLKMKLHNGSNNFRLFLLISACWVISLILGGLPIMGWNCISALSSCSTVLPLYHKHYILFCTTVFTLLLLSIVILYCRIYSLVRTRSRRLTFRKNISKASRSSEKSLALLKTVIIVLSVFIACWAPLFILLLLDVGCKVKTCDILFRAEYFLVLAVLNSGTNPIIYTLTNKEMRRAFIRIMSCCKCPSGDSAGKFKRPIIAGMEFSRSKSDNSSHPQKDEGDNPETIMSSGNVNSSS

[6] = biological target: 168 GPCRs (Homo sapiens, UniProt P21731); settings: TBXA2R
[7] = biological target: 168 GPCRs (Homo sapiens, UniProt P25025)
Chain of 168 GPCRs (Homo sapiens, UniProt P25025) (P25025 whole entry): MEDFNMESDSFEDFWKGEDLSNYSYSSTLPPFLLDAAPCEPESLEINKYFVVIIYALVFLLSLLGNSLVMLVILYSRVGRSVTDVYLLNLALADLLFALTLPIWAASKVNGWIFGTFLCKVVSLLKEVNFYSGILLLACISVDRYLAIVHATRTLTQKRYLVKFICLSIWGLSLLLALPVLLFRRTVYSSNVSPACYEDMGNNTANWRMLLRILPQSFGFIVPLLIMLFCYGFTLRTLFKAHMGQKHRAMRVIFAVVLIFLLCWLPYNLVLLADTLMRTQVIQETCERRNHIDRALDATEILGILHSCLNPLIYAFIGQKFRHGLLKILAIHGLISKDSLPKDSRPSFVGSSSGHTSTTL

[8] = biological target: 168 GPCRs (Homo sapiens, UniProt P25116); settings: F2F, Antagonist mode, 10 uM
[9] = biological target: 168 GPCRs (Homo sapiens, UniProt P30556); settings: AGTR1, Antagonist
Chain of 168 GPCRs (Homo sapiens, UniProt P30556) (P30556 whole entry): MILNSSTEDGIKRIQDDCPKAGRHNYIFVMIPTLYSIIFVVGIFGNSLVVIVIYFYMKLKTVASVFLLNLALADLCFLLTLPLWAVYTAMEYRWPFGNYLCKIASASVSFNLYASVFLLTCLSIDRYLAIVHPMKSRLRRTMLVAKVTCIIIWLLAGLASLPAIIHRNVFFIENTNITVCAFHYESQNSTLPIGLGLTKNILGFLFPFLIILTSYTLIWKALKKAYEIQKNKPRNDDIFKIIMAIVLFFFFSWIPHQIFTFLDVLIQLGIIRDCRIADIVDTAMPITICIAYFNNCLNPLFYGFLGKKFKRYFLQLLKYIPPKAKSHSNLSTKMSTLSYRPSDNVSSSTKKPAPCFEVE

[10] = biological target: 168 GPCRs (Homo sapiens, UniProt P32239); settings: CCKBR, Antagonist
Chain of 168 GPCRs (Homo sapiens, UniProt P32239) (P32239 whole entry): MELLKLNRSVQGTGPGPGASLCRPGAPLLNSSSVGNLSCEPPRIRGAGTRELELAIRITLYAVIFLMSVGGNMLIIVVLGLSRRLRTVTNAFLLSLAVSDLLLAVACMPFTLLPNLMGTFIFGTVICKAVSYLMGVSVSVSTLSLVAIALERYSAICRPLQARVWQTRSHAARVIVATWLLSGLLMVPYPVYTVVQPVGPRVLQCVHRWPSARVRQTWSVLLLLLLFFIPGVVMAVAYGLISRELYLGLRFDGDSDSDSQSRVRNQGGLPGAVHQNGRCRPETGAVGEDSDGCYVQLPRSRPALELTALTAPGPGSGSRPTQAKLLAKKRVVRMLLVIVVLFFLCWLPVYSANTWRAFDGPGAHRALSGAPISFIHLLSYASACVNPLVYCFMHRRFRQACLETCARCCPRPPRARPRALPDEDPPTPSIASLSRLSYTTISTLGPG

[11] = biological target: 168 GPCRs (Homo sapiens, UniProt P41143)
Chain of 168 GPCRs (Homo sapiens, UniProt P41143) (P41143 whole entry): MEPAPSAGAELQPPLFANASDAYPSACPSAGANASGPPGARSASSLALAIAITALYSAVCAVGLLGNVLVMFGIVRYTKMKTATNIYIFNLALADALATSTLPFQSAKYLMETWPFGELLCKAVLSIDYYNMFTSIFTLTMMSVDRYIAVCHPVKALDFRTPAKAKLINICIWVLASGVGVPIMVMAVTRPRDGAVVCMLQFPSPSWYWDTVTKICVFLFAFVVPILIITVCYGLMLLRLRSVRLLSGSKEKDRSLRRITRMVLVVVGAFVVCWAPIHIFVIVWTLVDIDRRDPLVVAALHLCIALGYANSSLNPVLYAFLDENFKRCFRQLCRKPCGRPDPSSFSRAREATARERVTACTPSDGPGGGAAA

[12] = biological target: 168 GPCRs (Homo sapiens, UniProt P41145)
[13] = biological target: 168 GPCRs (Homo sapiens, UniProt P41597); settings: CCR2, Antagonist
[14] = biological target: 168 GPCRs (Homo sapiens, UniProt P43115)
Chain of 168 GPCRs (Homo sapiens, UniProt P43115) (P43115 whole entry): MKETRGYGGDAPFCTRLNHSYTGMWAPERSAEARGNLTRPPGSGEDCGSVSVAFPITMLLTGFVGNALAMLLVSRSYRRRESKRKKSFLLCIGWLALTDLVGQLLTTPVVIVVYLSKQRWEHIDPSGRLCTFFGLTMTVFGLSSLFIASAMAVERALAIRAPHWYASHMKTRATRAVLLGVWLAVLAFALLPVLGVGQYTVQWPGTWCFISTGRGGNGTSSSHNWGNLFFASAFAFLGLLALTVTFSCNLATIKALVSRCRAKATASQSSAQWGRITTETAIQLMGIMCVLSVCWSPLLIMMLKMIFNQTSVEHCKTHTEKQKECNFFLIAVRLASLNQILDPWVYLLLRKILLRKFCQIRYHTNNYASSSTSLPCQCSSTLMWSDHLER

[15] = biological target: 168 GPCRs (Homo sapiens, UniProt P50391)
[16] = biological target: 168 GPCRs (Homo sapiens, UniProt P51686); settings: CCR9, Antagonist
[17] = biological target: 168 GPCRs (Homo sapiens, UniProt Q13324)
[18] = biological target: 168 GPCRs (Homo sapiens, UniProt Q92847); settings: GHSR
Chain of 168 GPCRs (Homo sapiens, UniProt Q92847) (Q92847 whole entry): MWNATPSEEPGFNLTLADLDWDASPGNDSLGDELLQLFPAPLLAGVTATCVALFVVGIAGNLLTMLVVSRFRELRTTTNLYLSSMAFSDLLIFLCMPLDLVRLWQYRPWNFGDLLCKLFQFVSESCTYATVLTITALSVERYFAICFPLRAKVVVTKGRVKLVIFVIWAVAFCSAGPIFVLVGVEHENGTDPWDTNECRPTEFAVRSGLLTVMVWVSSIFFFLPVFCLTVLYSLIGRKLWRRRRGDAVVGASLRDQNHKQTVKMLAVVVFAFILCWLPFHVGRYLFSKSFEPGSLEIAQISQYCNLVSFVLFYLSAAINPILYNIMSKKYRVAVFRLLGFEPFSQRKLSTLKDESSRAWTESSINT

[19] = biological target: 168 GPCRs (Homo sapiens, UniProt Q969V1)
Chain of 168 GPCRs (Homo sapiens, UniProt Q969V1) (Q969V1 whole entry): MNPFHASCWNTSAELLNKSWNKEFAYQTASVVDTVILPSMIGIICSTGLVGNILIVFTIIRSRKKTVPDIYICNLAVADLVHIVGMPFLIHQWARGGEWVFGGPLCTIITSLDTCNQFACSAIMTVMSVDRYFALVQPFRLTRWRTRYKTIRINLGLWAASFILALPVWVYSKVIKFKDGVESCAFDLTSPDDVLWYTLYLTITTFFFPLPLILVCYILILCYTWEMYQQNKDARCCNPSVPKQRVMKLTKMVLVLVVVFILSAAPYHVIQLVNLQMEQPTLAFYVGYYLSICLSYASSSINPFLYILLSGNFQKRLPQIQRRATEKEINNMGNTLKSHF

[20] = biological target: 168 GPCRs (Homo sapiens, UniProt Q96G91)
Chain of 168 GPCRs (Homo sapiens, UniProt Q96G91) (Q96G91 whole entry): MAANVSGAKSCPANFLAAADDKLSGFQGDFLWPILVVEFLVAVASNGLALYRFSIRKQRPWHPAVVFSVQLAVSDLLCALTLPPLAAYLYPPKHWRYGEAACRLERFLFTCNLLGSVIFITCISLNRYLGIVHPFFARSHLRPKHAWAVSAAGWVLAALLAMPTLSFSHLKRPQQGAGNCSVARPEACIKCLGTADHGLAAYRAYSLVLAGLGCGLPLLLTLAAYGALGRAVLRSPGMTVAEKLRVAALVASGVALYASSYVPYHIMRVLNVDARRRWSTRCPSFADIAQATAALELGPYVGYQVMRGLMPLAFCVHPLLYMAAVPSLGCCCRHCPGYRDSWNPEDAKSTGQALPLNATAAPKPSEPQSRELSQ

[21] = biological target: 168 GPCRs (Homo sapiens, UniProt Q9HC97)
Chain of 168 GPCRs (Homo sapiens, UniProt Q9HC97) (Q9HC97 whole entry): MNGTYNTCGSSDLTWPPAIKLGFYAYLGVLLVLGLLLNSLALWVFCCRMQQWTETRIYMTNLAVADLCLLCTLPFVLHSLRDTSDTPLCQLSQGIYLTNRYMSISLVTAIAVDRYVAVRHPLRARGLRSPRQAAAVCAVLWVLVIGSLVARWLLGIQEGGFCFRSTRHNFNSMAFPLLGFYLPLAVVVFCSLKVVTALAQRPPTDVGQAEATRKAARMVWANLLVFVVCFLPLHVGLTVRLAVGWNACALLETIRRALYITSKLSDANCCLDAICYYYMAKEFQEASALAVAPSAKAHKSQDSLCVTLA

Chain of 168 GPCRs (Homo sapiens, UniProt O95977) (O95977 whole entry): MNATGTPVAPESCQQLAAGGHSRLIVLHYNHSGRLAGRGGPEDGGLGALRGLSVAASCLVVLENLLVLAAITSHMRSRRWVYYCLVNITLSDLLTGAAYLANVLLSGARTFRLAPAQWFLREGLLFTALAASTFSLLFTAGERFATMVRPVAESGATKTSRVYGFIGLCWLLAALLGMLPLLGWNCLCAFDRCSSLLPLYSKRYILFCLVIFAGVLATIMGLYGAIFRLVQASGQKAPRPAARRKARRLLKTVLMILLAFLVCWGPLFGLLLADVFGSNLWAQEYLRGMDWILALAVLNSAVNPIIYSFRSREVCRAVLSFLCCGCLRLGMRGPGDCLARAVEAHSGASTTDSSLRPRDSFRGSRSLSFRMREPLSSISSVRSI
Chain of 168 GPCRs (Homo sapiens, UniProt O00574) (O00574 whole entry): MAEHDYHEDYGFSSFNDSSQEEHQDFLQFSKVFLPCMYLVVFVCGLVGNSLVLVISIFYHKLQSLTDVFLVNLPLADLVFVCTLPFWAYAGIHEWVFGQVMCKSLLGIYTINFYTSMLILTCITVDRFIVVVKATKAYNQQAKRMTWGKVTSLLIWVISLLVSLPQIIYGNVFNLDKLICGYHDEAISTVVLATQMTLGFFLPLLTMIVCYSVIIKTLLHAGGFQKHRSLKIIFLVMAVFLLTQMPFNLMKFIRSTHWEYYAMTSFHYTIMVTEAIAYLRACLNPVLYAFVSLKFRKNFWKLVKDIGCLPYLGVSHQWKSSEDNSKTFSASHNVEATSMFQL

`CNC(C)C(=O)c1ccc2c(c1)OCO2` (centres unmarked) [methylone, 3,4-methylenedioxy-N-methylcathinone] showed an activity at 10 µM ([1]; CXCR6, Antagonist mode, 10 uM) of 12.6%, an activity at 1 µM ([1]; CXCR6, Antagonist, 1 uM) of 27.2% and an activity at 10 µM ([2]; EDG6, Antagonist mode, 10 uM) of 7.8%. The activity at 1 µM ([2]; EDG6, Antagonist, 1 uM) was 13.2%, the activity at 1 µM ([3]; 1 uM) was 11.3% and the activity at 10 µM ([3]; 10 uM) was 7.7%. For the same molecule, the activity at 1 µM ([4]; 1 uM) was 15.8%, the activity at 10 µM ([4]; 10 uM) was 2% and the activity at 10 µM ([5]; EDG1, Antagonist mode, 10 uM) was 10.5%. The activity at 1 µM ([5]; EDG1, Antagonist, 1 uM) was 12.4%, the activity at 10 µM ([6]; Antagonist mode, 10 uM) was -19.7% and the activity at 1 µM ([6]; Antagonist, 1 uM) was -5.5%. The activity at 10 µM ([7]; CXCR2, Antagonist mode, 10 uM) was -1%, the activity at 1 µM ([7]; CXCR2, Antagonist, 1 uM) was -7.6% and the activity at 10 µM [8] was -11.4%. It also gave an activity at 1 µM ([9]; 1 uM) of 3.3%, an activity at 10 µM ([9]; 10 uM) of -1.4% and an activity at 1 µM ([10]; 1 uM) of -1.1%. It also gave an activity at 10 µM ([10]; 10 uM) of -2.4%, an activity at 10 µM ([11]; OPRD1, Antagonist mode, 10 uM) of 3.5% and an activity at 1 µM ([11]; OPRD1, Antagonist, 1 uM) of -2.7%. For the same molecule, the activity at 10 µM ([12]; OPRK1, Antagonist mode, 10 uM) was 10.4%, the activity at 1 µM ([12]; OPRK1, Antagonist, 1 uM) was 11.8% and the activity at 1 µM ([13]; 1 uM) was 2%. It also gave an activity at 10 µM ([13]; 10 uM) of 4.9%, an activity at 10 µM ([14]; PTGER3, Antagonist mode, 10 uM) of 5.7% and an activity at 1 µM ([14]; PTGER3, Antagonist, 1 uM) of -6.2%. For the same molecule, the activity at 10 µM ([15]; PPYR1, Antagonist mode, 10 uM) was 6.5%, the activity at 1 µM ([15]; PPYR1, Antagonist, 1 uM) was 9.5% and the activity at 1 µM ([16]; 1 uM) was 2.9%. For the same molecule, the activity at 10 µM ([16]; 10 uM) was -9.9%, the activity at 10 µM ([17]; CRHR2, Antagonist mode, 10 uM) was -0.3% and the activity at 1 µM ([17]; CRHR2, Antagonist, 1 uM) was -2%. The activity at 10 µM ([18]; Antagonist mode, 10 uM) was 9.1%, the activity at 1 µM ([18]; Antagonist, 1 uM) was 25.8% and the activity at 10 µM ([19]; MCHR2, Antagonist mode, 10 uM) was -4.5%. It also gave an activity at 1 µM ([19]; MCHR2, Antagonist, 1 uM) of 2%, an activity at 10 µM ([20]; P2RY11, Antagonist mode, 10 uM) of 6.6% and an activity at 1 µM ([20]; P2RY11, Antagonist, 1 uM) of 2.7%. The activity at 10 µM ([21]; GPR35, Antagonist mode, 10 uM) was 7.3% and the activity at 1 µM ([21]; GPR35, Antagonist, 1 uM) was 13.2%.
